Common to all, as to type: biochemical
Test [1] addresses T1, PknG (Mycobacterium tuberculosis, UniProt P9WI73).
T1 construct: Full-length PknG was overexpressed in Escherichia coli BL21(DE3) cells; made in house; host or cells: Escherichia coli BL21(DE3)

In test [2] the target is T1, PknG. Nature of the test: Reversibility of PknG inhibition by thiol reagents (DTT, GSH). As to conditions: for effect of thiol reagent per se on control PknG kinase activity: 42 mM DTT or 24 mM GSH.
The target of test [3] is T1, PknG. Nature of the test: PknG autophosphorylation (MALDI-TOF MS of tryptic phosphopeptides). As to conditions: 30 μM, 10 min before autophosphorylation reaction. As to the method:
(§1) FIGS. 4A-4D are a series of graphs depicting PknG kinase activity inhibition by OA-NO2, in which FIG. 4A depicts GarA phosphorylation by PknG by linear MALDI-TOF mass spectrum of: GarA (m/z 17145, dashed line), GarA phosphorylated by PknG using a molar ratio PknG:GarA of 1:20 (m/z 17222, grey line) and GarA phosphorylated by PknG pretreated with 50 μM OA-NO2 for 10 minutes (m/z 17143, black line), FIG. 4B is a series of three panels depicting PknG autophosphorylation with an upper panel illustrating linear MALDI-TOF spectrum of native PknG after tryptic digestion showing basal autophoshporylation pattern. Unphosphorylated peptide (m/z 5395.8), monophosphorylated (m/z 5475.4) and diphosphorylated species (m/z 5555.1) are detected as expected, a middle panel depicting linear MALDI-TOF spectrum of PknG after incubation with ATP and Mn^2+ and further typtic digestion (autophoshorylation positive control). […] After 10 minutes of incubation enzyme activities were determined. Samples were analyzed in triplicates; and FIG. 4D depicts time dependent inhibition of PknG by OA-NO2. […] At the indicated time points aliquots of control and treated PknG were removed, and enzyme inhibition was determined using Kinase Glo® by comparison with control activity. Samples were analyzed in triplicates. […]

The target in test [4] is T1, PknG. Nature of the test: Time course of PknG inhibition, Kinase Glo Plus luminescent kinase assay. As to conditions: PknG 10 μM, 50 μM OA-NO2, pre-incubation 0 to 30 min, 25° C. As to the method: as §1
(In general: In Kinase-Glo more light means more ATP remaining.)

Another test concerns the target T2, PknG Rbx domain (Mycobacterium tuberculosis, UniProt P9WI73).
T2 construct: Full-length PknG was overexpressed in Escherichia coli BL21(DE3) cells; made in house; host or cells: Escherichia coli BL21(DE3)
Kind of test: Iron release from Rbx domain of PknG (BPS spectrophotometric determination). The conditions noted are these: 50 μM of OA-NO2.

Results on five compounds are retold here after patent US20150051283A1, “COMPOSITION AND METHOD FOR INHIBITION OF PKNG FROM MYCOBACTERIUM TUBERCULOSIS” (priority 2013, published 2015).

T1 sequence (P9WI73 whole entry): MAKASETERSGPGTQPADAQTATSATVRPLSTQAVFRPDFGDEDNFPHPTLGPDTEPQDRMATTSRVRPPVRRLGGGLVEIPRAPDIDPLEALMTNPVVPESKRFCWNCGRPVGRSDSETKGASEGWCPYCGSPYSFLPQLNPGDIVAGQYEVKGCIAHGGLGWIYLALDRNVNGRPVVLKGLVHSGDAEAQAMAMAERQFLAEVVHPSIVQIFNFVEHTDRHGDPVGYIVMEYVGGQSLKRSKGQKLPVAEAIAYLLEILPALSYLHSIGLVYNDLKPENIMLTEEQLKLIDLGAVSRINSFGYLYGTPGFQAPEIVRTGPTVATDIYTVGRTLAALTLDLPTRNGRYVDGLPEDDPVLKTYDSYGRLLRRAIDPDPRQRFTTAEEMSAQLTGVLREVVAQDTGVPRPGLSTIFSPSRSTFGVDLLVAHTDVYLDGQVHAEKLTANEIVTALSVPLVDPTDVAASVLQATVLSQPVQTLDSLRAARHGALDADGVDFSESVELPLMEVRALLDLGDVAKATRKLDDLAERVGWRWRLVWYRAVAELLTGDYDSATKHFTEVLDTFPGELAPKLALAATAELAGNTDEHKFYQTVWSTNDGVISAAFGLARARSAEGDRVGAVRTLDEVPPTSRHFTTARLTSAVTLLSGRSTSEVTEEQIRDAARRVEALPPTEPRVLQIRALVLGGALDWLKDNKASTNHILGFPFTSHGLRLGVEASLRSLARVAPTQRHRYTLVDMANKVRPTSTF
T2 sequence (P9WI73 whole entry, the tested form may be a part): as the sequence (P9WI73 whole entry) above

Consider `NC(=O)CI` [IAM, iodoacetamide, reference compound], for which the “effect on kinase activity” value at PknG [1] (IAM treatment (up to 150 μM, PknG 10 μM), only free Cys156 modified) is “without affecting kinase activity”.
With `N[C@@H](CCC(=O)N[C@@H](CS)C(=O)NCC(=O)O)C(=O)O` [GSH], the “effect of thiol reagent per se on control PknG kinase activity” value at PknG [2] was “no effect”.
“9- and 10-nitro-octadeca-9-cis-enoic acid [OA-NO2]”: the “autocatalytic (autophosphorylation) activity” value on PknG [3] is “inhibited”. At PknG [4], the “kinase activity versus pre-incubation time” value was “decreased kinase activity in a time-dependent manner”. At PknG Rbx domain, the “iron present at the Rbx domain released” value was 70%. Moreover, on PknG [2], the “effect of OA-NO2 on PknG activity (reversibility)” value is reported as “irreversible”. Further, the “ability to phosphorylate GarA” value at PknG [1] (30 μM, molar ratio OA-NO2:PknG 3:1, 10 minutes of preincubation) is given as “clearly decreased”. Moreover, the IC50 at PknG [1] (PknG 8 μM, OA-NO2 0 to 80 μM, 10 min pre-incubation, 70 mM ammonium bicarbonate pH 8.0, 25° C, read-out: concentration at which 50% of enzyme inhibition was reached) was found to be 35 µM. The “kinase activity of PknG” value at PknG [1] (micromolar concentrations, molar excess ranging from 1:1 to 1:3) is “noticeably inhibited”.
`O[C@@H](CS)[C@@H](O)CS` [DTT]: the “effect of thiol reagent per se on control PknG kinase activity” value on PknG [2] is “no effect”.
`CCCCCCCCC=CCCCCCCCC(=O)O` [oleic acid, 9-octadecenoic acid, reference compound]: at PknG [1] (equivalent concentrations to OA-NO2, data not shown), the “effect on kinase activity (control)” value was “no effect”.
